Organism: Rattus norvegicus
Assay: DrugMatrix - Regimen: Daily Repeat
Assay type: toxicity, organism-based, Sprague-Dawley
Design: regimen Daily Repeat, gender Male, age 6-8 weeks
Settings: in vivo, route none, vehicle 100 % UNTREATED; for BASOPHIL / ERYTHROCYTE COUNT / HEMATOCRIT / HEMOGLOBIN / LEUKOCYTE COUNT / LYMPHOCYTE / MEAN CORPUSCULAR HEMOGLOBIN / MEAN CORPUSCULAR HEMOGLOBIN CONCENTRATION / MONOCYTE / NEUTROPHIL / NUCLEATED RED BLOOD CELLS / PLATELET COUNT / ABSOLUTE BASOPHIL / ABSOLUTE EOSINOPHIL / ABSOLUTE LYMPHOCYTE / ABSOLUTE MONOCYTE / ABSOLUTE SEGMENTED NEUTROPHIL / EOSINOPHIL / MEAN CORPUSCULAR VOLUME: tissue Blood
[1] = 60 mg/kg, 120 h, dose level M1, time 5 day
[2] = 60 mg/kg, 120 h, tissue Plasma, dose level M1, time 5 day
[3] = 60 mg/kg, […], dose level M1, time 14 day
[4] = 60 mg/kg, […], tissue Plasma, dose level M1, time 14 day
[5] = 75 mg/kg, 120 h, dose level High, time 5 day
[6] = 75 mg/kg, 120 h, tissue Plasma, dose level High, time 5 day
[7] = 75 mg/kg, […], dose level High, time 14 day
[8] = 75 mg/kg, […], tissue Plasma, dose level High, time 14 day

Diet_Restriction
BASOPHIL [1]: 0% | ERYTHROCYTE COUNT [1]: 5.22 x10E6/uL | HEMATOCRIT [1]: 32.2% | HEMOGLOBIN [1]: 11.93 G/DL | LEUKOCYTE COUNT [1]: 4.3 x10E3/uL | LYMPHOCYTE [1]: 87.33% | MEAN CORPUSCULAR HEMOGLOBIN [1]: 22.9 pg | MEAN CORPUSCULAR HEMOGLOBIN CONCENTRATION [1]: 37.1 G/DL | MONOCYTE [1]: 0.67% | NEUTROPHIL [1]: 10.67% | NUCLEATED RED BLOOD CELLS [1]: 0 /100WBC | PLATELET COUNT [1]: 765.33 x10E3/uL | ALANINE AMINOTRANSFERASE [2]: 32.33 u/L | ALBUMIN [2]: 4.3 G/DL | ALKALINE PHOSPHATASE [2]: 267.33 u/L | ASPARTATE AMINOTRANSFERASE [2]: 64.33 u/L | BLOOD UREA NITROGEN [2]: 6.33 mg/dL | CARBON DIOXIDE [2]: 31.33 mmol/L | CHOLESTEROL [2]: 52 mg/dL | CREATINE PHOSPHOKINASE [2]: 263 u/L | CREATININE [2]: 0.14 mg/dL | GLUCOSE [2]: 137.33 mg/dL | LACTATE DEHYDROGENASE [2]: 96 u/L | PHOSPHORUS [2]: 10.27 mg/dL | POTASSIUM [2]: 5.6 MEQ/L | TOTAL BILIRUBIN [2]: 0.1 mg/dL | TOTAL PROTEIN [2]: 5.93 G/DL | ABSOLUTE BASOPHIL [3]: 0 CELLS/uL | ABSOLUTE EOSINOPHIL [3]: 64 CELLS/uL | ABSOLUTE LYMPHOCYTE [3]: 14236 CELLS/uL | ABSOLUTE MONOCYTE [3]: 39.33 CELLS/uL | ABSOLUTE SEGMENTED NEUTROPHIL [3]: 894 CELLS/uL | BASOPHIL [3]: 0% | EOSINOPHIL [3]: 0.33% | ERYTHROCYTE COUNT [3]: 6.6 x10E6/uL | HEMATOCRIT [3]: 37.43% | LEUKOCYTE COUNT [3]: 15.23 x10E3/uL | LYMPHOCYTE [3]: 92.67% | MEAN CORPUSCULAR HEMOGLOBIN [3]: 21.37 pg | MEAN CORPUSCULAR HEMOGLOBIN CONCENTRATION [3]: 37.67 G/DL | MEAN CORPUSCULAR VOLUME [3]: 56.73 fL | MONOCYTE [3]: 0.33% | NEUTROPHIL [3]: 6.67% | NUCLEATED RED BLOOD CELLS [3]: 0 /100WBC | PLATELET COUNT [3]: 800.67 x10E3/uL | ALANINE AMINOTRANSFERASE [4]: 47 u/L | ALBUMIN [4]: 4.4 G/DL | ALKALINE PHOSPHATASE [4]: 256 u/L | ASPARTATE AMINOTRANSFERASE [4]: 114.33 u/L | BLOOD UREA NITROGEN [4]: 15 mg/dL | CARBON DIOXIDE [4]: 25 mmol/L | CHOLESTEROL [4]: 65 mg/dL | CREATINE PHOSPHOKINASE [4]: 1426.33 u/L | CREATININE [4]: 0.23 mg/dL | GLUCOSE [4]: 165.33 mg/dL | LACTATE DEHYDROGENASE [4]: 131.33 u/L | LIPASE [4]: 12 u/L | PHOSPHORUS [4]: 11.63 mg/dL | POTASSIUM [4]: 5.69 MEQ/L | TOTAL BILIRUBIN [4]: 0.17 mg/dL | TOTAL PROTEIN [4]: 6.17 G/DL | ABSOLUTE BASOPHIL [5]: 0 CELLS/uL | ABSOLUTE EOSINOPHIL [5]: 35.33 CELLS/uL | ABSOLUTE LYMPHOCYTE [5]: 3939.33 CELLS/uL | ABSOLUTE MONOCYTE [5]: 67.67 CELLS/uL | ABSOLUTE SEGMENTED NEUTROPHIL [5]: 957.67 CELLS/uL | BASOPHIL [5]: 0% | EOSINOPHIL [5]: 0.67% | ERYTHROCYTE COUNT [5]: 5.54 x10E6/uL | HEMATOCRIT [5]: 33.63% | HEMOGLOBIN [5]: 12.8 G/DL | LEUKOCYTE COUNT [5]: 5 x10E3/uL | LYMPHOCYTE [5]: 79% | MEAN CORPUSCULAR HEMOGLOBIN [5]: 23.13 pg | MEAN CORPUSCULAR HEMOGLOBIN CONCENTRATION [5]: 38.07 G/DL | NEUTROPHIL [5]: 19% | NUCLEATED RED BLOOD CELLS [5]: 0 /100WBC | PLATELET COUNT [5]: 1074.67 x10E3/uL | ALANINE AMINOTRANSFERASE [6]: 49.33 u/L | ALBUMIN [6]: 4.3 G/DL | ALKALINE PHOSPHATASE [6]: 317.33 u/L | ASPARTATE AMINOTRANSFERASE [6]: 72 u/L | BLOOD UREA NITROGEN [6]: 9.33 mg/dL | CARBON DIOXIDE [6]: 35 mmol/L | CHOLESTEROL [6]: 65.67 mg/dL | CREATINE PHOSPHOKINASE [6]: 288.33 u/L | CREATININE [6]: 0.15 mg/dL | GLUCOSE [6]: 136.33 mg/dL | LACTATE DEHYDROGENASE [6]: 95.67 u/L | PHOSPHORUS [6]: 11.33 mg/dL | POTASSIUM [6]: 6.01 MEQ/L | SODIUM [6]: 146.17 MEQ/L | TOTAL BILIRUBIN [6]: 0.1 mg/dL | TOTAL PROTEIN [6]: 6.23 G/DL | URIC ACID [6]: 1 mg/dL | ABSOLUTE BASOPHIL [7]: 0 CELLS/uL | ABSOLUTE EOSINOPHIL [7]: 0 CELLS/uL | ABSOLUTE LYMPHOCYTE [7]: 13779.33 CELLS/uL | ABSOLUTE MONOCYTE [7]: 115 CELLS/uL | ABSOLUTE SEGMENTED NEUTROPHIL [7]: 2472.33 CELLS/uL | BASOPHIL [7]: 0% | EOSINOPHIL [7]: 0% | ERYTHROCYTE COUNT [7]: 6.39 x10E6/uL | HEMATOCRIT [7]: 35.97% | HEMOGLOBIN [7]: 13.47 G/DL | LEUKOCYTE COUNT [7]: 16.37 x10E3/uL | LYMPHOCYTE [7]: 84.33% | MEAN CORPUSCULAR HEMOGLOBIN [7]: 21.13 pg | MEAN CORPUSCULAR HEMOGLOBIN CONCENTRATION [7]: 37.47 G/DL | MEAN CORPUSCULAR VOLUME [7]: 56.37 fL | MONOCYTE [7]: 0.67% | NEUTROPHIL [7]: 15% | NUCLEATED RED BLOOD CELLS [7]: 0 /100WBC | PLATELET COUNT [7]: 941 x10E3/uL | ALANINE AMINOTRANSFERASE [8]: 51 u/L | ALKALINE PHOSPHATASE [8]: 319.33 u/L | ASPARTATE AMINOTRANSFERASE [8]: 77.33 u/L | BLOOD UREA NITROGEN [8]: 14 mg/dL | CHLORIDE [8]: 99.67 MEQ/L | CHOLESTEROL [8]: 64.33 mg/dL | CREATINE PHOSPHOKINASE [8]: 271.33 u/L | CREATININE [8]: 0.23 mg/dL | GLUCOSE [8]: 175 mg/dL | LACTATE DEHYDROGENASE [8]: 113 u/L | LIPASE [8]: 20.33 u/L | PHOSPHORUS [8]: 12.13 mg/dL | POTASSIUM [8]: 5.75 MEQ/L | TOTAL BILIRUBIN [8]: 0.13 mg/dL | TOTAL PROTEIN [8]: 6.1 G/DL | URIC ACID [8]: 1.3 mg/dL
